Data on seven compounds can be found in PubChem BioAssay AID1963861 (Molecular Pharmacology Branch, DTP, NCI, 2024).

SMILES strings stand for the structures. Where “and” joins values, the source holds several entries; their conditions need not be identical. Identical values can stand only once. Bounds are passed on as bounds.

For orientation: viability, T/C means the ratio of treated to control. For orientation: IC50 means the concentration needed to halve the response being measured.

This experiment concerns 885724-159-R-J1-PDC KRAS PDC multicell spheroid viability. The experiment can be described thus: Anticancer human tumor 885724-159-R-J1-PDC patient-derived pancreatic adenocarcinoma cell line growth inhibition [KRAS2]. To be noted: for viability, T/C: stronger effect = lower value. An excerpt:
Multicellular complex tumor spheroid response to RAS pathway inhibitors in combination with a targeted agents in patient-derived cell lines with oncogenic KRAS variants from multiple cancer types
A high-throughput screen of multi-cell type tumor spheroids was designed to identify active combinations of targeted small molecules and KRAS pathway inhibitors. Complex spheroids include a stromal component modeled by human endothelial cells (HUVEC) and fibroblasts modeled by human mesenchymal stem cells (MSCs). The concentration ranges selected for each drug and investigational agent were based upon clinically achievable concentrations if the clinical Cmax of the agent was known.
Compounds. The drugs and investigational agents: BI-3406 (NSC825286), BAY-293 (NSC824723), batoprotafib (TNO155; NSC825523), sotorasib (AMG 510; NSC818433), MRTX1257 (NSC819558), elimusertib (BAY 1895344; NSC800525), molibresib (GSK525762; NSC774829), temuterkib (LY3214996; NSC803410), venetoclax (NSC766270), alisertib (NSC759677), olaparib (NSC753686), talazoparib (NSC767125), erdafitinib (NSC781556), ipatasertib (NSC767898), cabozantinib (NSC761068), nintedanib (NSC756659), abemaciclib (NSC768073), docetaxel (NSC628503), trametinib (NSC758246), and sapanisertib (NSC764658) were obtained from the National Cancer Institute (NCI) Developmental Therapeutics Program Chemical Repository. The FDA-approved anticancer drug set is available from the Developmental Therapeutics Program. […] The stock solutions were prepared in dimethyl sulfoxide (DMSO, Sigma-Aldrich, St. Louis, MO, cat. D2650) at 800-fold the tested concentration and stored at -70 degrees C prior to their use. All drugs and investigational agents were tested over a range starting from a high concentration at or near the clinical Cmax and decreasing in half-log increments. If the clinical Cmax for an agent had not been determined, the highest concentration tested was 10 microM.
Cell Culture. All cells were maintained in an incubator at 37 degrees C and 5% CO2 with 95% humidity. The PDC lines were cultured according to standard operating procedures established by the NCI PDMR (https://pdmr.cancer.gov/sops/default.htm). Briefly, all PDCs were thawed and cultured in Matrigel-coated flasks prepared with a working solution of 1X Ham's F-12 nutrient mix, without supplementation (Invitrogen, Waltham, MA, cat. 11765054), 100 U/mL penicillin-streptomycin (Invitrogen, cat. 15140122), and 2.5% Matrigel (Corning Inc., Corning, NY, cat. 354248) for the first three passages. All PDCs were cultured in complete DMEM/F-12 media containing advanced DMEM/F-12 (Invitrogen, cat. 12634028), 4.9% defined fetal bovine serum, heat inactivated (HyClone Laboratories Inc., Logan, UT, cat. SH30070.03HI), 389 ng/mL hydrocortisone (Sigma-Aldrich, cat. H4001), 9.7 ng/mL human EGF recombinant protein (Invitrogen, cat. PHG0313), 23.4 microg/mL adenine (Sigma-Aldrich, cat. A2786), 97.3 U/mL penicillin-streptomycin (Invitrogen, cat. 15140122), 1.9 mM L-glutamine (Invitrogen, cat. 25030081), and 9.7 microM Y-27632 dihydrochloride (Tocris Bioscience, Bristol, United Kingdom, cat. 1254). The PDCs were cultured in complete DMEM/F12 media without 9.7 microM Y-27632 dihydrochloride for at least two passages prior to the screen. The established cell line HOP-62 was cultured in RPMI 1640 medium, HEPES (Invitrogen, cat. 22400105) with 10% defined fetal bovine serum (HyClone Laboratories Inc., cat. SH30070.03) and 2 mM L-glutamine (Invitrogen, cat. 25030081). The pooled donor HUVEC were cultured in endothelial cell growth medium 2 (PromoCell, Heidelberg, Germany, cat. C-22011) and the hMSC were cultured in mesenchymal stem cell growth medium 2 (PromoCell, cat. C-28009). For all experiments, HUVEC and hMSC were used at passages </=5, while the malignant cell lines were used at passages </=15. […]

The mark [1] stands for this setting: compound alone, run of 08/19/2021.
Setting [2] is: compound alone, run of 08/26/2021.
[3] abbreviates: compound alone, run of 09/02/2021.
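Also: spheroids exposed to agents for 7 days before readout.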

Regarding `C=CC(=O)N1CCN(c2nc(=O)n(-c3c(C)ccnc3C(C)C)c3nc(-c4c(O)cccc4F)c(F)cc23)C(C)C1` (stereo not drawn), the viability, T/C is, setting by setting: (compound 0.1 µM) 107% [middle of 15 runs]; (compound 0.316 µM) 107% [middle of 15 runs]; (compound 1 µM) 106% [middle of 15 runs]. Moreover, the 50% inhibitory concentration (IC50) runs as follows: under setting [1], over 10 µM; under setting [2], over 10 µM; under setting [3], over 10 µM.
`CC(C)NCC(C(=O)N1CCN(c2ncnc3c2C(C)CC3O)CC1)c1ccc(Cl)cc1` (stereo not drawn): the viability, T/C was 95.8% [middle of 5 runs] (compound 0.0316 µM); 83.2% [middle of 5 runs] (compound 0.1 µM); 75.3% [middle of 5 runs] (compound 0.316 µM); 75.9% [middle of 5 runs] (compound 1 µM); 84.6% [middle of 5 runs] (compound 3.16 µM); 56.9% [middle of 5 runs] (compound 10 µM). Moreover, the concentration for half-maximal inhibition (IC50) (curve of compound) is over 10 µM.
Consider `CNCc1ccccc1-c1csc(C(C)Nc2nc(C)nc3cc(OC)c(OC)cc23)c1` (stereo not drawn), for which the viability, T/C runs as follows: (compound 0.1 µM) 101% [middle of 15 runs]; (compound 0.316 µM) 101% [middle of 15 runs]; (compound 10 µM) 0.23% [middle of 13 runs]. Also, the IC50 is, setting by setting: under setting [2], 1.65 µM [middle of 5 runs]; under setting [3], 1.6 µM and 1.72 µM and 1.8 µM.
In the case of `COC(=O)c1ccc2c(C(=Nc3ccc(N(C)C(=O)CN4CCN(C)CC4)cc3)c3ccccc3)c(O)[nH]c2c1`, the viability, T/C by setting is: (compound 0.0316 µM) 99.8% [middle of 5 runs]; (compound 0.1 µM) 103% [middle of 5 runs]; (compound 0.316 µM) 98.2% [middle of 5 runs]; (compound 1 µM) 103% [middle of 5 runs]; (compound 3.16 µM) 29.4% [middle of 5 runs]; (compound 10 µM) 0.61% [middle of 5 runs]. In addition, where the note is “curve of compound”, the IC50 is 2.26 µM [middle of 5 runs].
On to `COc1cc2nc(C)nc(NC(C)c3cc(N)cc(C(F)(F)F)c3)c2cc1OC1CCOC1` (stereo not drawn), for which the IC50 under setting [1] is > 10 µM and 8.35 µM and 7.91 µM.
With `COc1cc2nccc(Oc3ccc(NC(=O)C4(C(=O)Nc5ccc(F)cc5)CC4)cc3)c2cc1OC`, the viability, T/C is 111% [middle of 5 runs] (compound 0.0316 µM); 108% [middle of 5 runs] (compound 0.1 µM); 110% [middle of 5 runs] (compound 0.316 µM); 102% [middle of 5 runs] (compound 1 µM); 74.1% [middle of 5 runs] (compound 3.16 µM); 70.5% [middle of 5 runs] (compound 10 µM). Besides, the IC50 (curve of compound) is over 10 µM.
With `CC(=O)OC12COC1CC(O)C1(C)C(=O)C(O)C3=C(C)C(OC(=O)C(O)C(NC(=O)OC(C)(C)C)c4ccccc4)CC(O)(C(OC(=O)c4ccccc4)C21)C3(C)C` (stereo not drawn) + C=CC(=O)N1CCN(c2nc(=O)n(-c3c(C)ccnc3C(C)C)c3nc(-c4c(O)cccc4F)c(F)cc23)C(C)C1, the IC50 reads like this: (curve of first compound, second compound 0.1 µM) over 3.16 µM; (curve of first compound, second compound 0.316 µM) over 3.16 µM; (curve of first compound, second compound 1 µM) over 3.16 µM; (curve of first compound, second compound 3.16 µM) over 3.16 µM; (curve of first compound, second compound 10 µM) over 3.16 µM. Also, the viability, T/C reads like this: (second compound 0.1 µM, first compound 0.01 µM) 91.7%; (second compound 0.1 µM, first compound 0.0316 µM) 104%; (second compound 0.1 µM, first compound 0.1 µM) 95.5%; (second compound 0.1 µM, first compound 0.316 µM) 107%; (second compound 0.1 µM, first compound 1 µM) 110%; (second compound 0.1 µM, first compound 3.16 µM) 112%. For the same compound, the viability, T/C is, setting by setting: (second compound 0.316 µM, first compound 0.01 µM) 94.6%; (second compound 0.316 µM, first compound 0.0316 µM) 102%; (second compound 0.316 µM, first compound 0.1 µM) 104%; (second compound 0.316 µM, first compound 0.316 µM) 112%; (second compound 0.316 µM, first compound 1 µM) 112%; (second compound 0.316 µM, first compound 3.16 µM) 112%. In addition, the viability, T/C was 105% (second compound 1 µM, first compound 0.01 µM); 119% (second compound 1 µM, first compound 0.0316 µM); 114% (second compound 1 µM, first compound 0.1 µM); 103% (second compound 1 µM, first compound 0.316 µM); 119% (second compound 1 µM, first compound 1 µM); 125% (second compound 1 µM, first compound 3.16 µM). The viability, T/C by setting is: (second compound 3.16 µM, first compound 0.01 µM) 99.1%; (second compound 3.16 µM, first compound 0.0316 µM) 114%; (second compound 3.16 µM, first compound 0.1 µM) 113%; (second compound 3.16 µM, first compound 0.316 µM) 112%; (second compound 3.16 µM, first compound 1 µM) 111%; (second compound 3.16 µM, first compound 3.16 µM) 121%. Moreover, the viability, T/C reads like this: (second compound 10 µM, first compound 0.01 µM) 80.8%; (second compound 10 µM, first compound 0.0316 µM) 84.1%; (second compound 10 µM, first compound 0.1 µM) 87.7%; (second compound 10 µM, first compound 0.316 µM) 86%; (second compound 10 µM, first compound 1 µM) 86.6%; (second compound 10 µM, first compound 3.16 µM) 78.3%.
